Assay results published in US10532084B2, “Chondrocyte extracellular matrix-derived peptide” (EYEBIO KOREA, priority 2016, dated 2020).
“Also recorded” adds a separate entry of the source.

Assays:
[1] = Tear amount by phenol red-impregnated cotton threads, dry eye model; type: in vivo, NOD.B10.H2b mice; settings: 10 days of treatment after removal of dry stress; normal 0.22±0.01, DS 10D 0.03±0.01
Method: Tear production was measured by a method reported using phenol red-impregnated cotton threads (Zone-Quick, Oasis, Glendora, Calif.) (Villareal A L, Farley W, Pflugfelder S C. Effect of topical ophthalmic epinastine and olopatadine on tear volume in mice. Eye Contact Lens. 2006; 32 (6): 272-276.). […] The measured lachrymal fluid in the millimeter was compared with a standard curve expressed as a cotton thread which was soaked with the expected tear amount of mouse of basic solution ([…] of 0.9% salt and 5 mL of 5 N NaOH) for 20 seconds.
The degree of tear generation was measured by phenol red-impregnated cotton threads.

corneal epithelial cell = test: Corneal epithelial cell detachment (H&E), dry eye model; type: in vivo, NOD.B10.H2b mice; settings: 10 days of treatment after removal of dry stress; DS 10D 2.29±0.57
Method: (§1) NOD.B10.H2^b mice were purchased from Jackson Laboratory (Bar Harbor, Me., USA). Animal experiments were carried out in accordance with the guidelines approved by the University of Inje (No.; 2014-029) and ARVO regarding animal use for eye and vision research. NOD.B10.H2^b mice at 12-16 weeks old were exposed to 40-50% ambient humidity and ventilation using a fan for 18 hours a day as dry stress and subcutaneously injected with 0.5 mg/0.2 mL muscarinic receptor blocker. In addition, scopolamine hydrobromide (Sigma-Aldrich, St. Louis, Mo.) was injected alternately to the […] hips four times a day for 10 days at 9 am, […].
(§2) After 10 days of ocular dry stress, the scopolamine injection was stopped, and switched to a normal humidity and temperature environment and the dry stress was removed, 10 mg/ml Hyp-[…] and collagen were dissolved in normal saline to administer 5 μL each 5 times a day for 10 days, and normal saline and 0.1% HA were administered to the eyeball 5 times a day for 10 days. Three mice were used in each of the six experimental groups using both eyes of the mice and all experiments were repeated.

[2] = test system: conjunctival goblet cells; test: Distribution of conjunctival goblet cells (PAS staining), dry eye model; type: in vivo, NOD.B10.H2b mice; settings: 10 days of treatment after removal of dry stress; normal 14.38±0.44, DS 10D 6.02±0.29
Method: as §1, §2
The distribution of conjunctival goblet cells according to eye drop in dry eye mice was observed.

corneal surface = test: Corneal surface irregularity (smoothness) score, dry eye model; type: in vivo, NOD.B10.H2b mice; settings: day 10 after removal of dry stress; grades 0-5; normal 0.33±0.58, DS 10D 4.33±0.58
Method: as §1, §2
As for the curvature of the corneal surface, a reflected image of the white ring was obtained from an optical fiber ring illumination of a stereoscopic microscope (SZX7; Olympus) after anesthetizing the animal. Corneal smoothness was assessed by grading the irregularity of corneal epithelial cells reflected in the white ring of the digital image. Corneal irregularity severity score was calculated by dividing the reflection ring into quadrants and grading into 5 grades according to degree of irregularity. No irregularity is grade 0, irregularity of ¼ (quarter) is grade 1; irregularity of 2/4 (two-quarters) is grade 2; irregularity of ¾ (three-quarters) is grade 3; entire irregularity is grade 4; and […] and thus all the rings were confirmed.
The degree of corneal curvature in each experiment group was quantified to confirm the bendability of the corneal surface.

VEGF, ICAM and MCP-1 = test: Quantitative real-time RT-PCR of retina and choroid, laser CNV model; type: in vivo, C57BL/6 mice; settings: mouse, 14 days after laser; 5 μg; laser-treated group increased about 55 times
Method: In order to confirm the inhibitory effect of hydroxy proline-GQDGLAGPK on neovascularization-related gene expression, RNA was extracted using RNeasy Mini kit (Qiagen) in mixture of retina and choroid of extracted mice eyeballs, and cDNA was synthesized by using oligo(dT) primer and reverse transcriptase. PCR products were amplified using the specific primer set (COSMOGENETECH, Korea) shown in Table 1 and SYBR Green PCR 2X PreMix (Enzynomics) and for the PCR conditions, the samples were incubated at 95° C. for 10 minutes, and 40 PCR cycles at 95° C. for 15 seconds, 60° C. for 30 seconds and 72° C. for 15 seconds, were performed. Relative quantification was calculated using 2-(DDCT) method [Livak and Schmittgen, 2001; DDCT=(CT, target-CT, actin) control group (CT, target-CT, actin) control group].
After 14 days of laser irradiation in mouse, RNA was extracted from retina and choroid to analyze the gene expression by real-time RT-PCR.

[3] = test system: choroidal neovascularization (CNV); test: Laser-induced choroidal neovascularization (CNV), lesion size by retina-choroid flat-mount; type: in vivo, C57BL/6 mice; settings: mouse, laser irradiation; 2 μg intraocular injection for 5 days
Method: C57BL/6 mice were purchased from Orient Bio and the animal experiments was carried out in accordance with the guidelines approved by the University of Inje (No, 2013-053) and ARVO regarding animal use for eye and vision studies. 6-week-old C57BL/6 mice were treated with diode green laser (532 nm, 150 mW, 0.1 sec, […], photocoagulator) to damage the retinal optic nerve area. […] The above experiment for each experiment group was performed using both eyes of five mice each. […]
The mouse was anesthetized and injected with 25 mg/ml of FITC-dextran in […] of retro-orbital. After 30 minutes, the mouse was euthanized and the eyeball was extracted and fixed with 10% formalin and then, the cornea and lens were removed and flat mounted on the cover glass. The neovasculature stained with FITC-dextran was observed by fluorescence microscopy (Leica) and the lesion size was measured by Image J program. […]

[4] = test system: human vascular endothelial cells (HUVEC); test: Tubing assay (VEGF-induced tube formation); type: cell-based; settings: 50 ng/ml recombinant human VEGF, 4 hours
Method: The antiangiogenic effect of hydroxy proline-GQDGLAGPK was confirmed by tubing assay using human vascular endothelial cells (HUVEC).
HUVEC cells were stained with calcein-AM and then dispensed on a Matrigel-coated 48-well plate, treated with collagen, CPI and CPII at concentrations together with 50 ng/ml of recombinant human VEGF, and after 4 hours of incubation at 37° C., tube formation was observed by fluorescence microscopy (Leica) and tube length was analyzed by Image lab software (Bio-Rad Laboratories).
Tubing assay using human vascular endothelial cells (HUVEC) was performed to confirm the anti-angiogenic effect of hydroxyl proline-GQDGLAGPK.

## O=c1ccn([C@@H]2O[C@H](COP(=O)([O-])OP(=O)([O-])OP(=O)([O-])OP(=O)([O-])OC[C@H]3O[C@@H](n4ccc(=O)[nH]c4=O)[C@H](O)[C@@H]3O)[C@@H](O)[C@H]2O)c(=O)[nH]1.[Na+].[Na+].[Na+].[Na+] [DQS, reference compound]
[1]
  tear amount: 0.16 ± 0.02 µL
Corneal epithelial cell
  corneal epithelial cell detachment: 0.095±0.17 /0.1 mm^2
[2]
  conjunctival goblet cells: 8.86±0.29 /0.1 mm^2
Corneal surface
  degree of curvature (irregularity score) of the corneal surface: 3.0±1.0 points

## Avastin: a remedy of an age-related macular degeneration; positive control [reference compound]
VEGF, ICAM and MCP-1
  VEGF gene expression in retina and choroid: decreased to the level similar to that of the laser-untreated group

## GDRGD [CPI]
[3]
  CNV lesions: reduced; also recorded: decreased
[4]
  inhibition of tube formation (angiogenesis): significant inhibition of angiogenesis

## collagen [reference compound]
[1]
  tear amount: 0.13 ± 0.02 µL
Corneal epithelial cell
  corneal epithelial cell detachment: 0.86±0.29 /0.1 mm^2
[2]
  conjunctival goblet cells: 11.05±0.33 /0.1 mm^2
[3]
  CNV lesions: reduced; also recorded: decreased
Corneal surface
  degree of curvature (irregularity score) of the corneal surface: 3.67±1.16 points
[4]
  inhibition of tube formation (angiogenesis): significant inhibition of angiogenesis
